Measured values as given in US5998426A, “9,10 disubstituted camptothecin derivatives with antitumor activity” (Pharmacia & Upjohn S.p.A., priority 1996, dated 1999).

Each molecule was assayed on L1210 cells (murine lymphocytic leukemia) (assay: Cytotoxic activity in vitro on L1210 cells (50% inhibition of cellular growth) after 48 h continuous treatment). Conditions: Mus musculus, total cells counted with Coulter Counter, DMSO final concentration 0.5%, read-out: IC50 (concentration inhibiting 50% of cell growth).
Type: cell-based
Protocol: The IC50 was determined for each compound of formula (Ia), (Ib) and (Ic) from dose-response curves counting the total number of cells with a Coulter Counter (Kontron mod. ZM).
The tested compounds were dissolved in dimethylsulfoxide (DMSO) at a final concentration of 0.5%.
`CC[C@@]1(O)C(=O)OCc2c1cc1n(c2=O)Cc2cc3c(N)c(OS(=O)(=O)c4cccc5ccccc45)ccc3nc2-1` [Formula (Ia), 9-amino-10-(1-naphthylsulfonyloxy)-20(S)-camptothecin] showed an IC50 of 2.2 ± 0.3 ng/mL. Work on `CC[C@@]1(O)C(=O)OCc2c1cc1n(c2=O)Cc2cc3c(N)c(OS(=O)(=O)c4ccccc4)ccc3nc2-1` [Formula (Ib), 9-amino-10-phenylsulfonyloxy-20(S)-camptothecin] yielded an IC50 of 6.8 ± 0.4 ng/mL. `CCc1c2c(nc3ccc(OS(=O)(=O)c4ccc(C)cc4)c(N)c13)-c1cc3c(c(=O)n1C2)COC(=O)[C@]3(O)CC` [Formula (Ic), 7-ethyl-9-amino-10-(p-toluenesulfonyloxy)-20(S)-camptothecin] gave an IC50 of 4.6 ± 0.1 ng/mL.
